In patent publication US20040224958A1, “Pyridopyrimidinone derivatives for treatment of neurodegenerative disease” (priority 2000, published 2004):

How the values were obtained:
Cdk5/p25 = Cdk5/p25 (Homo sapiens, UniProt Q00535); assay: Cyclin-Dependent Kinase 5 High Throughput Screening (cdk5-HTS) Assay; assay type: biochemical; conditions: high throughput screen
Outline: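 Cdk5/p25 (1.0 μg/mL) phosphorylates GST-RbCOOH (20 μg/mL) in 50 mM Tris pH 7.4 with 10 mM MgCl2 and 20 μM ATP spiked with [γ33P]ATP, 30 min at room temperature. After EDTA stop, substrate captured on glutathione-coated plates; 33P incorporation counted by scintillation; IC50 determined.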

cdk2/cyclinE = cdk2/cyclinE (Homo sapiens, UniProt P24941); assay: Cyclin-Dependent Kinase Assay cdk2/cyclinE; conditions: cdk2/E IC50
cdk4/D = cdk4/D (Homo sapiens, UniProt P11802); assay: Cyclin-Dependent Kinase 4 (cdk4) Assay; assay type: biochemical; conditions: read-out: cdk4/D IC50
cdk2/cyclinA = cdk2/cyclinA (Homo sapiens, UniProt P24941); assay: Cyclin-Dependent Kinase Assay cdk2/cyclinA; conditions: cdk2/A IC50
cdc2/cyclinB = cdc2/cyclinB (Homo sapiens, UniProt P06493); assay: Cyclin-Dependent Kinase Assay cdc2/cyclinB
Sequence of cdc2/cyclinB (P06493 whole entry): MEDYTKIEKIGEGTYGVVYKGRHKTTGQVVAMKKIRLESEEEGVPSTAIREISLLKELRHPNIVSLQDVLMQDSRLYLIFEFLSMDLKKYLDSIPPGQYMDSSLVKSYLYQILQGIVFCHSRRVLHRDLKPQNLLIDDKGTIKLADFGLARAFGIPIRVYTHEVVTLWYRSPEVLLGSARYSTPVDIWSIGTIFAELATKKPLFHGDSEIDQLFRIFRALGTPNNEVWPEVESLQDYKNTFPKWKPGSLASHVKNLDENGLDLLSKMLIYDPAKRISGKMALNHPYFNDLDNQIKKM
Sequence of cdc2/cyclinB (P14635 whole entry, further chain): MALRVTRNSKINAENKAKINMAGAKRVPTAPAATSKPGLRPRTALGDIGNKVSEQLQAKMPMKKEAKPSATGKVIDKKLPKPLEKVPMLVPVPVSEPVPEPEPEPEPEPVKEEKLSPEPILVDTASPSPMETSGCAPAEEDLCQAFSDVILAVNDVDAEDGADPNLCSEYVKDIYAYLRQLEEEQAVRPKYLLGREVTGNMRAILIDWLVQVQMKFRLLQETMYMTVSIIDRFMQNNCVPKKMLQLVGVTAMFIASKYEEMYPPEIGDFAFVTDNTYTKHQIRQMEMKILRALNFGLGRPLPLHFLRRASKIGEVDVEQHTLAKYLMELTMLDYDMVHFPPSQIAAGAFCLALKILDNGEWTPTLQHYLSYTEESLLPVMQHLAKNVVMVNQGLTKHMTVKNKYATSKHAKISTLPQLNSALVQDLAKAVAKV

Sequence of cdk4/D (P11802 whole entry): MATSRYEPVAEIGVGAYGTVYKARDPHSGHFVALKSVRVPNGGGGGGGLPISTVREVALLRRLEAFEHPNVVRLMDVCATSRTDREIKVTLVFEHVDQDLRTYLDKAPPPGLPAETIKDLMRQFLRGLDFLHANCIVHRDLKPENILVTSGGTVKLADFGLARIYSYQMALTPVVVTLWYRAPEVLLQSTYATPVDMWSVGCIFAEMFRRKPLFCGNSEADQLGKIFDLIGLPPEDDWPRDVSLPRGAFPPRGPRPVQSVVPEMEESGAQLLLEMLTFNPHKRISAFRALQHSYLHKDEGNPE
Sequence of cdk4/D (P24385 whole entry, further chain): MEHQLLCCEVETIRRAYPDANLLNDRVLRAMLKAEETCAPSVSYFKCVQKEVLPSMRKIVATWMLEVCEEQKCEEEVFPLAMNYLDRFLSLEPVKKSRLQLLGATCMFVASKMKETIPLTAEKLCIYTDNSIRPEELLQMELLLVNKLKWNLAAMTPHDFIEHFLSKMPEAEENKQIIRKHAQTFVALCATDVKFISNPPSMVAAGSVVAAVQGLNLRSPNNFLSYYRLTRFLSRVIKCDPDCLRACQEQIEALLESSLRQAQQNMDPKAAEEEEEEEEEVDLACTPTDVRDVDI

IC50 (Cdk5/p25) [nM]	IC50 (cdk2/cyclinE) [nM]	IC50 (cdk4/D) [nM]	IC50 (cdk2/cyclinA) [nM]	IC50 (cdc2/cyclinB) [nM]	Compound
84.7	48.9	720	408	107	CCCCn1c(=O)ccc2cnc(Nc3cccc(I)c3)nc21 [Example 375, 8-Butyl-2-(3-iodo-phenylamino)-8H-pyrido[2,3-d]pyrimidin-7-one]
92.5	35.3	690	75	80	CCCn1c(=O)ccc2cnc(Nc3cc(Cl)c(O)c(Cl)c3)nc21 [Example 328, 2-(3,5-Dichloro-4-hydroxy-phenylamino)-8-propyl-8H-pyrido[2,3-d]pyrimidin-7-one]
17.5	53	365	57.5	31.5	CCC(CC)n1c(=O)ccc2cnc(Nc3ccc4cn[nH]c4c3)nc21 [Example 518, 8-(1-Ethyl-propyl)-2-(1H-indazol-6-ylamino)-8H-pyrido[2,3-d]pyrimidin-7-one]
61	510	290	470	410	CCCn1c(=O)ccc2cnc(Nc3ccc4c(c3)C(C)C(C)N4)nc21 (stereo not drawn) [Example 356, 2-(2,3-Dimethyl-2,3-dihydro-1H-indol-5-ylamino)-8-propyl-8H-pyrido[2,3-d]pyrimidin-7-one]
19	60.7	44.5	145	89.5	CCC(C)n1c(=O)ccc2cnc(Nc3ccc4[nH]ccc4c3)nc21 (stereo not drawn) [Example 447, 8-sec-Butyl-2-(1H-indol-5-ylamino)-8H-pyrido[2,3-d]pyrimidin-7-one]
410	460	420	490	650	O=c1ccc2cnc(Nc3ccc(F)c([N+](=O)[O-])c3)nc2n1CC1CC1 [Example 576, 8-Cyclopropylmethyl-2-(4-fluoro-3-nitro-phenylamino)-8H-pyrido[2,3-d]pyrimidin-7-one]
40	250	2000	1500	430	CCn1c(=O)ccc2cnc(Nc3ccc(F)c(C(F)(F)F)c3)nc21 [Example 293, 8-Ethyl-2-(4-fluoro-3-trifluoromethyl-phenylamino)-8H-pyrido[2,3-d]pyrimidin-7-one]
110	330	830	630	160	CCC(CC)n1c(=O)ccc2cnc(Nc3ccc(NC(C)=O)c(C)c3)nc21 [Example 513, N-{4-[8-(1-Ethyl-propyl)-7-oxo-7,8-dihydro-pyrido[2,3-d]pyrimidin-2-ylamino]-2-methyl-phenyl}-acetamide]
31	200	230	160	170	CCC(C)n1c(=O)ccc2cnc(Nc3ccc(C)c(C)c3)nc21 (stereo not drawn) [Example 476, 8-sec-Butyl-2-(3,4-dimethyl-phenylamino)-8Hi-pyrido[2,3-d]pyrimidin-7-one]
150	120	120	340	360	CCCCn1c(=O)ccc2cnc(Nc3ccc(OC)c(F)c3)nc21 [Example 394, 8-Butyl-2-(3-fluoro-4-methoxy-phenylamino)-8H-pyrido[2,3-d]pyrimidin-7-one]
160	275	315	425	320	CCCn1c(=O)ccc2cnc(Nc3ccc(OC)cc3)nc21 [Example 329, 2-(4-Methoxy-phenylamino)-8-propyl-8H-pyrido[2,3-d]pyrimidin-^7-one]
63	36.3	415	152	101	COc1ccc(Nc2ncc3ccc(=O)n(C4CCCCC4)c3n2)cc1OC [Example 613, 8-Cyclohexyl-2-(3,4-dimethoxy-phenylamino)-8H-pyrido[2,3-d]pyrimidin-7-one]
